Measurements: PubChem BioAssay AID1902 (Broad Institute, 2009)
Values joined by “and” are separate entries in the source; they are usually repeats but may differ in a detail not shown here. Identical values can stand only once. Active and inactive are the calls of the source.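 The calls were made as follows: active = EC50 no more than a set limit of log units above the highest dose; inactive = the rest.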

Target: S. pyogenes SKKanGAS, kanamycin survival, BacTiterGlo, 6 h
Assay: SKKanGAS survival reduction under kanamycin, dose response, streptokinase promoter inhibitor project, SKKanGAS strain, luminescence, dose confirmation (AID 1902);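 also: lower survival reflects blocked streptokinase promoter driving kanamycin resistance gene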

Oc1cccc(/C=N/N(Cc2ccccc2)c2ccccc2)c1
EC50: 6.02 µM

O=C(Cc1cccs1)NNC(=S)NC(=O)c1ccccc1
EC50: 3.29 µM

CCCCn1c(/C=N/Nc2nc3ccccc3[nH]2)nc2ccccc21
EC50: 1.17 µM

CCOC(=O)c1cc(-c2cccs2)nc2c1c(C)nn2-c1ccccn1
EC50: 2.64 µM

CC(CNC(=S)Nc1cc(F)cc(F)c1)CSc1ccc(Cl)cc1 (stereo not given)
EC50: 8.56 µM

O=S(=O)(NC(=NCc1ccccc1)c1ccccc1)c1ccc(Br)cc1
EC50: > 15 µM (inactive)

CCN=C1S/C(=C\c2ccc(-c3cccc(C(=O)O)c3)o2)C(=O)N1CC
EC50: 3.4 µM

CC1CC(C)CN(S(=O)(=O)c2ccc(C(=O)Nc3nnc(C4CC4)o3)cc2)C1 (stereo not given)
EC50: 1.03 µM

COc1cccc(CC(=O)OCC(=O)Nc2nnc(-c3ccccc3)o2)c1
EC50: 4.58 µM

Brc1cc2c(cc1C1Nc3ccccc3C3C=CCC31)OCO2 (stereo not given)
EC50: 5.37 µM

CCCOC(=O)c1ccc(Oc2cn[nH]c2-c2ccc(OC)cc2O)cc1
EC50: 7.36 µM

CCCC(=O)NC(c1ccco1)c1cc(Cl)c2cccnc2c1O (stereo not given)
EC50: 1.5 µM

Cc1ccc(C(=O)n2c(N)nc3ccccc32)cc1
EC50: 4.29 µM

O=C1CCCc2oc3c(cc(NS(=O)(=O)c4ccc5c6c(cccc46)C(=O)N5)c4ccccc43)c21
EC50: 4.02 µM

CCOC(=O)C1=C(Cc2ccc(C)cc2)C(=O)c2ccccc2C1=O
EC50: 4.64 µM

O=C(CNC(=O)c1ccco1)NCc1nc2ccccc2[nH]1
EC50: > 15 µM (inactive)

COC(=O)c1ccc(Cl)c(NC(=O)CSc2nnc(-c3ccncc3)o2)c1
EC50: > 15 µM (inactive)

CSCC[C@H](NC(=O)c1nn(C)c(=O)c2ccccc12)c1nc2ccccc2[nH]1
EC50: 2.85 µM

Fc1ccccc1CNc1ccc(Cl)c(Cl)c1
EC50: 15.6 µM

Cn1c(-c2c(N)n(C3CCCC3)c3nc4ccccc4nc23)nc2ccccc21
EC50: 1.12 µM

O=C(Nc1nc2ccc(F)cc2s1)c1ccccn1
EC50: 0.694 µM

Cc1ccc(/C=C2/Sc3ccc(C(=O)N4CCN(c5ccccn5)CC4)cc3NC2=O)cc1
EC50: 1.91 µM

Fc1cccc2sc(Nc3nnc(-c4ccccc4)o3)nc12
EC50: 0.824 µM

CCOC(=O)c1c(NC(=O)CCS(=O)(=O)c2ccccc2)sc2c1CCN(C)C2
EC50: > 15 µM (inactive)

Cc1cccc(Cc2cnc(N3C(=N)SC(C)C3=O)s2)c1 (stereo not given)
EC50: 0.131 µM

COc1cccc(/C=N/Nc2ccc([N+](=O)[O-])cn2)c1O
EC50: 0.637 µM

O=C(O)c1cccc2c(-c3ccccc3)c(-c3ccccc3)[nH]c12
EC50: 8.51 µM

CN(C)c1ccnc2c[cH-]cc12.[Fe].c1ccc(-[c-]2[c-](-c3ccccc3)[c-](-c3ccccc3)[c-](-c3ccccc3)[c-]2-c2ccccc2)cc1 (stereo not given)
EC50: 1.96 µM and 0.56 µM

NC(=O)c1ccc(NC(=O)COC(=O)c2c3c(nc4ccccc24)/C(=C\c2ccc4c(c2)OCO4)CCC3)cc1
EC50: 5.31 µM

CCCCCCCCCCCCC/C=C/[C@@H](O)[C@@H](N)CO
EC50: 2.56 µM

CCN1CCN(C(=O)N[C@@H](C(=O)N[C@@H]2C(=O)N3[C@@H]2SC(C)(C)[C@@H]3C(=O)O)c2ccccc2)C(=O)C1=O
EC50: 0.285 µM

CCOC(=O)c1c(NS(=O)(=O)c2ccc(Br)cc2)sc2c1CCC2
EC50: 1.6 µM

CCN(CC)c1ccc(C(=O)OCc2cc(=O)oc3cc(O)ccc23)cc1
EC50: 15.3 µM

CC(C)C(=O)Nc1ccc(C(=O)N/N=C/c2cc(Br)cc(Br)c2O)cc1
EC50: 1.36 µM

CC1CCN(Cc2c(C(=O)N/N=C/c3cc(Br)ccc3O)nnn2-c2nonc2N)CC1
EC50: 10.2 µM

CCCCNc1c(-c2cccc(-c3ccc(OC)cc3)c2)nc2ccc(C)cn12
EC50: 4.05 µM

COC(=O)c1ccc(C(=O)OC)c(NC(=O)CN(C)Cc2cccc(Cl)c2Cl)c1
EC50: 7.7 µM

Cn1c2ccccc2c(=O)c2cc(C#Cc3ccc(N)cc3)ccc21
EC50: 1.35 µM

Cc1onc(-c2ccccc2)c1C(=O)NNC(=S)NC(=O)/C=C/c1cccs1
EC50: 0.839 µM

Cc1ccc(S(=O)(=O)N2c3ccccc3OCC2C(C)(C)C)cc1 (stereo not given)
EC50: 2.59 µM

COc1ccc(-c2cc3nc4ccccc4n3c(N)c2C#N)cc1
EC50: 4.21 µM

Oc1c(C(Nc2ccccn2)c2cccnc2)cc(Cl)c2cccnc12 (stereo not given)
EC50: 2.46 µM

COc1ccc(-c2csc(NC(=S)NC(=O)c3cccs3)n2)cc1OC
EC50: 13.9 µM

COc1ccc(Oc2nc(C(F)(F)F)nc3ccccc23)cc1
EC50: 7.14 µM

CCn1c(=O)c(C(=O)NNC(=O)c2ccccc2)c(O)c2ccccc21
EC50: 0.839 µM

COc1ccc([C@H]2Oc3cc(O)cc(O)c3C(=O)C2[C@@H]2C(=O)c3c(O)cc(O)cc3O[C@@H]2c2ccc(OC)cc2)cc1 (stereo not given in full)
EC50: 1.61 µM

CC(C)(C)c1cc[n+](C2=C([O-])c3ccccc3C(=O)/C2=N\S(=O)(=O)c2ccccc2)cc1
EC50: 3.2 µM

O=C(O)c1cnc(-c2ccccc2)nc1Sc1ccc(Cl)cc1Cl
EC50: 9.74 µM

Cc1cc(C)n(-c2nc(C)nc(NCc3ccccc3)n2)n1
EC50: > 15 µM (inactive)

CC1(C)S[C@@H]2[C@H](NC(=O)Cc3ccccc3)C(=O)N2[C@H]1C(=O)O
EC50: < 0.06 µM

COc1ccc(C(=O)CSc2nnc(CNC(=O)c3ccc(S(=O)(=O)N(C)C)cc3)o2)cc1
EC50: > 15 µM (inactive)

Cc1cccc(Nc2nc(N)nc(CN3CCN(c4ccc(F)cc4)CC3)n2)c1
EC50: 15.6 µM

CC(C)c1ccc2c(c1)c(SC(C)(C)C)c(CC(C)(C)C(=O)O)n2Cc1ccc(Cl)cc1
EC50: 0.875 µM

Cc1ccccc1NC1=C/C(=N\S(=O)(=O)c2ccc(C(=O)O)cc2)c2ccccc2C1=O
EC50: 1.9 µM

CCCn1c(NC(=O)c2ccccc2Br)nc2ccccc21
EC50: 5.66 µM

CC(C)NC(=S)NC(c1ccccc1)(c1ccccc1)c1ccccc1
EC50: 4.87 µM

CCOc1ccc(C)cc1S(=O)(=O)NC1CCCCCC1
EC50: > 15 µM (inactive)

O=S(=O)(Nc1ccc(N=Nc2ccc(O)c3ccccc23)cc1)c1ccccc1
EC50: 7.08 µM

CC(=O)NS(=O)(=O)c1ccc(N=c2ssc3c2-c2ccc(C)cc2NC3(C)C)cc1
EC50: 2.92 µM

CN(C(=O)CSc1nc(-c2ccc(C(C)(C)C)cc2)c(C#N)c(=O)[nH]1)C1CCCCC1
EC50: 1.36 µM

Cc1ccc(O)c(C2=NNC(c3ccc(Cl)cc3)C2)c1 (stereo not given)
EC50: 7.44 µM

N#Cc1c(NC(=O)CSc2n[nH]c(Cc3ccccc3)n2)oc(-c2ccccc2)c1-c1ccccc1
EC50: 4.93 µM

Cc1cc2c(cc1C)CSC(c1c(O)ccc3ccccc13)SC2
EC50: 2.08 µM

COc1cc(-c2c(C#N)c(N)nc3c2c(C)nn3-c2ccc(C)c(C)c2)cc(OC)c1OC
EC50: 4.53 µM

CC(C)C1C(c2ccccc2)N(C)C(c2ccccc2)CC1(O)c1ccccc1 (stereo not given)
EC50: 2.48 µM

CCC(=O)N1N=C(c2c(O)n(CCc3ccccc3)c(=O)[nH]c2=O)CC1c1ccc(OC)c(OC)c1 (stereo not given)
EC50: 0.991 µM

Cc1nc(N)nc(N)c1CCCc1ccc(Cl)c(Cl)c1
EC50: 0.87 µM

O=S(=O)(Nc1nccs1)c1ccc(Nc2nnc(-c3ccccc3)c3ccccc23)cc1
EC50: 2.51 µM

C=C(CC1([C@@H](NP(=O)(c2ccccc2)c2ccccc2)[C@H]2C[C@@H]2CCCC)CC1)c1ccccc1
EC50: 3.64 µM

COc1ccc(C(=O)NC2CCCCCC2)cc1S(=O)(=O)N1CCOCC1
EC50: > 15 µM (inactive)

O=C(/C=C/c1ccco1)Nc1nc(-c2ccccn2)cs1
EC50: 0.362 µM

O=C(NNC1=Nc2ccccc2SC1)c1ccc(F)cc1
EC50: 6.87 µM

Nc1ccc(N=Nc2ccccc2)c2ccccc12
EC50: 6.71 µM

CN1Cc2cc(C(=O)c3cc(Cl)cc(CSc4ncccn4)c3O)cnc2NC1=O
EC50: 9.39 µM

CN1C(=O)/C(=C/c2ccccc2Cl)Sc2ccc(C(=O)NCc3cccnc3)cc21
EC50: 4.69 µM
